How the values were obtained:
[1] = molecular target: T1, Solute carrier organic anion transporter family member 1B3 (Homo sapiens, UniProt Q9NPD5); settings: chinese hamster, cho, 10 µM
T1 sequence (Q9NPD5 whole entry): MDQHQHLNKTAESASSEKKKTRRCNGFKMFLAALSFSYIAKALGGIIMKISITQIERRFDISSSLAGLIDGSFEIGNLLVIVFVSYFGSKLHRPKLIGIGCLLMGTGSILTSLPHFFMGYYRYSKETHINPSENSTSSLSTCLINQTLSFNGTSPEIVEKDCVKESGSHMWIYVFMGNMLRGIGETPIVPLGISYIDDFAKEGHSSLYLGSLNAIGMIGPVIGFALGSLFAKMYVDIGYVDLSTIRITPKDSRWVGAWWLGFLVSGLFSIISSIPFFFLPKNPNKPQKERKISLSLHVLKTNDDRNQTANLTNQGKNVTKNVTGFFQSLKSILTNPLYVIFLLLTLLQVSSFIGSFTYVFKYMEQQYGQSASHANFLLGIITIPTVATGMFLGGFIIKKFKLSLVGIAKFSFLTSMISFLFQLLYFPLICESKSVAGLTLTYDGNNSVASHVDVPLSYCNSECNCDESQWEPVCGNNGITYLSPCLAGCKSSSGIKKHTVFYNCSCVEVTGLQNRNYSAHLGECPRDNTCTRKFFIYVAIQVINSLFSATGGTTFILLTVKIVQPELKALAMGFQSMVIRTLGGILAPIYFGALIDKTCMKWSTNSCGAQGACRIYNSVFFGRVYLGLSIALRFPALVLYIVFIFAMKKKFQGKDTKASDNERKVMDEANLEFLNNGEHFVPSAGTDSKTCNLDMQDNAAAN

[2] = molecular target: T2, Solute carrier organic anion transporter family member 1B1 (Homo sapiens, UniProt Q9Y6L6); settings: chinese hamster, cho, 10 µM
T2 sequence (Q9Y6L6 whole entry): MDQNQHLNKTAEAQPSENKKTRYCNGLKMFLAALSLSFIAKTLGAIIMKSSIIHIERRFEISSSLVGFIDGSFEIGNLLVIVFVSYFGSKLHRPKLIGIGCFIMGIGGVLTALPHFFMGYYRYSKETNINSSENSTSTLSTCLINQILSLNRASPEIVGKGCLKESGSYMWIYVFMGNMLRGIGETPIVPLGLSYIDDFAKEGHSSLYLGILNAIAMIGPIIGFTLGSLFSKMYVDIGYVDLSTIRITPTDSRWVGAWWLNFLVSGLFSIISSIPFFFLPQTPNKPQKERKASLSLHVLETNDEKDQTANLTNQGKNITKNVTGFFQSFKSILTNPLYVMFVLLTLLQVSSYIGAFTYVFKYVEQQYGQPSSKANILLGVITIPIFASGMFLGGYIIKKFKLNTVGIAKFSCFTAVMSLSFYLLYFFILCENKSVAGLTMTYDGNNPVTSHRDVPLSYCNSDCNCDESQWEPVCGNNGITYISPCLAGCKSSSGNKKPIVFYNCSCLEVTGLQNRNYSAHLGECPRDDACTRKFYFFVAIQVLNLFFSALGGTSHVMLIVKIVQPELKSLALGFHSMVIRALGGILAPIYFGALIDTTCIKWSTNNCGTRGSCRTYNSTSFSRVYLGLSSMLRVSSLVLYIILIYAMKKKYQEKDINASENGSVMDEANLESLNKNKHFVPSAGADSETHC

C#CCOS(=O)OC1CCCCC1Oc1ccc(C(C)(C)C)cc1 (centres undefined) [PROPARGITE]
residual activity [1]: 106%
residual activity [2]: 93.31%

CC=CC(=O)N(CC)c1ccccc1C
residual activity [1]: 72.95%
residual activity [2]: 71.83%

C[C@]12C=CC(=O)C=C1CC[C@H]1[C@@H]3C[C@@H](O)[C@](O)(C(=O)CO)[C@@]3(C)C[C@H](O)[C@@]12F [TRIAMCINOLONE]
residual activity [1]: 81.81%
residual activity [2]: 70.81%

O=C1C=C(O)C(=O)c2ccccc21 [LAWSONE]
residual activity [1]: 101.6%
residual activity [2]: 99.76%

NS(=O)(=O)c1cc2c(cc1Cl)NCNS2(=O)=O [HYDROCHLOROTHIAZIDE]
residual activity [1]: 82.24%
residual activity [2]: 68.94%

COC[C@]12CN(C=O)C3[C@@H]4[C@H](OC)[C@H]1[C@@]3([C@@H](OC)C[C@H]2O)[C@@H]1C[C@@]2(O)[C@H](OC(=O)c3ccccc3)[C@@H]1[C@]4(OC(C)=O)[C@@H](O)[C@@H]2OC
residual activity [1]: 73.94%
residual activity [2]: 90.86%

O=C([O-])c1cc(=O)c2c(OCC(O)COc3cccc4oc(C(=O)[O-])cc(=O)c34)cccc2o1.[Na+].[Na+] [CROMOLYN SODIUM]
residual activity [1]: 94.62%
residual activity [2]: 101.2%

CC[C@H]1[C@@H]2C[C@H]3[C@@H]4N(C)c5ccccc5[C@]45C[C@@H]([C@@H]2[C@H]5O)N3[C@@H]1O [AJMALINE]
residual activity [1]: 91.52%
residual activity [2]: 34.58%

C=C[C@H]1CN2CC[C@H]1C[C@@H]2[C@@H](O)c1ccnc2ccc(OC)cc12.O=C(O)[C@H](O)[C@@H](O)[C@H](O)[C@H](O)CO [QUINIDINE GLUCONATE]
residual activity [1]: 122%
residual activity [2]: 103.2%

CC(=O)O[C@@H]1C[C@H]2C(C)(C)C=CC(=O)[C@@]2(C)[C@H]2CC[C@]3(C)[C@@H](c4ccoc4)OC(=O)[C@H]4O[C@]43[C@]21C
residual activity [1]: 46.89%
residual activity [2]: 18.57%

COc1ccc2c(c1)OC1(O)COc3cc(OC)c(OC)cc3C1=C2 (centres undefined) [12a-HYDROXY-5-DEOXYDEHYDROMUNDUSERONE]
residual activity [1]: 119.6%
residual activity [2]: 102.5%

O=c1oc2c(O)c(O)cc3c(=O)oc4c(O)c(O)cc1c4c23 [ELLAGIC ACID]
residual activity [1]: 65.47%
residual activity [2]: 75.25%

C/C=C/c1ccc2c(c1)OCO2 [ISOSAFROLE]
residual activity [1]: 79.83%
residual activity [2]: 75.01%

COc1cc(C)c(C(=O)O)c(O)c1 [EVERNINIC ACID]
residual activity [1]: 90.88%
residual activity [2]: 82.73%

N#C/C(=C\c1ccc(O)cc1)C(=O)O [alpha-CYANO-4-HYDROXYCINNAMIC ACID]
residual activity [1]: 105.3%
residual activity [2]: 112.8%

COC(=O)N/N=C/c1c[n+]([O-])c2ccccc2[n+]1[O-] [CARBADOX]
residual activity [1]: 107.6%
residual activity [2]: 84.43%

NC[C@H]1O[C@H](O[C@H]2[C@H](O[C@@H]3O[C@H](CO)[C@@H](O)[C@H]3O)[C@@H](O)[C@H](N)C[C@@H]2N)[C@H](N)[C@@H](O)[C@@H]1O.O=S(=O)(O)O
residual activity [1]: 98.01%
residual activity [2]: 107.3%

O=[N+]([O-])c1cc(O)c(O)c([N+](=O)[O-])c1 [3,5-DINITROCATECHOL (OR-486)]
residual activity [1]: 75.38%
residual activity [2]: 38.63%

O=S1OCC2C(CO1)C1(Cl)C(Cl)=C(Cl)C2(Cl)C1(Cl)Cl (centres undefined) [ENDOSULFAN]
residual activity [1]: 117.8%
residual activity [2]: 111.6%

C=C1C(=O)O[C@H]2C[C@@H]1C(OC(C)=O)C/C(C)=C/CC/C(C)=C/CC[C@@]2(C)O (some centres undefined) [CRASSIN ACETATE]
residual activity [1]: 65.53%
residual activity [2]: 60.87%

CC(C)CCC[C@@H](C)[C@H]1CC[C@H]2[C@@H]3C(=O)C=C4C[C@@H](O)CC[C@]4(C)[C@H]3CC[C@]12C [7-OXOCHOLESTEROL]
residual activity [1]: 90.78%
residual activity [2]: 96.87%

COc1ccc(-c2coc3cc(O)cc(O)c3c2=O)cc1 [BIOCHANIN]
residual activity [1]: 113.5%
residual activity [2]: 98.38%

CNC(=O)Oc1cccc2c1OC(C)(C)O2 [BENDIOCARB]
residual activity [1]: 84.46%
residual activity [2]: 88.1%

CN(C)CCCN1c2ccccc2Sc2ccc(Cl)cc21 [CHLORPROMAZINE]
residual activity [1]: 97.66%
residual activity [2]: 99.49%

CC(=O)O[C@@H]1c2c(ccc3ccc(=O)oc23)OC(C)(C)[C@@H]1OC(=O)CC(C)C [DIHYDROSAMIDIN]
residual activity [1]: 104.1%
residual activity [2]: 75.05%

C/C=C(/C)C(=O)O[C@H]1CC[C@@]2(C)[C@@H]3CC[C@H]4[C@]5(O)C[C@H](O)[C@@]6(O)[C@@H](CN7C[C@@H](C)CC[C@H]7[C@@]6(C)O)[C@]5(O)C[C@@]42O[C@]13O [CEVADINE]
residual activity [1]: 84.71%
residual activity [2]: 78.54%

CCCCC1=NC2(CCCC2)C(=O)N1Cc1ccc(-c2ccccc2-c2nnn[nH]2)cc1 [IRBESARTAN]
residual activity [1]: 47.18%
residual activity [2]: 76.05%

O=C(CCCN1CCC(O)(c2ccc(Cl)cc2)CC1)c1ccc(F)cc1 [HALOPERIDOL]
residual activity [1]: 111.7%
residual activity [2]: 92.15%

C=C1C(=O)O[C@@H]2C[C@@]3(C)CCC[C@H](C)C3=C[C@H]12 [HELENINE]
residual activity [1]: 115.2%
residual activity [2]: 116%

COC1=CC(=O)C[C@@H](C)[C@]12Oc1c(Cl)c(OC)cc(OC)c1C2=O [GRISEOFULVIN]
residual activity [1]: 97.62%
residual activity [2]: 65.59%

Cl.Cl.NCCCCN [PUTRESCINE DIHYDROCHLORIDE]
residual activity [1]: 106.7%
residual activity [2]: 110.3%

COC(=O)c1c(Cl)c(Cl)c(C(=O)OC)c(Cl)c1Cl [DACTHAL]
residual activity [1]: 106.6%
residual activity [2]: 103.5%

C[C@@H]1O[C@@H](O[C@H]2[C@H](O[C@H]3CC[C@]4(C)C5CC=C6[C@@H]7CC(C)(C)CC[C@]7(C(=O)O)CC[C@]6(C)[C@]5(C)CC[C@@H]4[C@]3(C)CO)OC[C@H](O)[C@@H]2O)[C@H](O)[C@H](O)[C@H]1O (some centres undefined)
residual activity [1]: 112.9%
residual activity [2]: 103.8%

COc1cc([C@@H]2c3cc4c(c(O)c3C[C@H]3COC(=O)[C@@H]32)OCO4)cc(OC)c1OC [BETA-PELTATIN A]
residual activity [1]: 101.7%
residual activity [2]: 78.87%

C[C@H](CCC(=O)O)[C@H]1CC[C@H]2[C@@H]3CC[C@@H]4C[C@H](O)CC[C@]4(C)[C@H]3C=C[C@]12C
residual activity [1]: 112%
residual activity [2]: 23.69%

CN1C(C(=O)Nc2ccccn2)=C(O)c2sccc2S1(=O)=O [TENOXICAM]
residual activity [1]: 78.1%
residual activity [2]: 78.82%

CC(=O)O[C@H]1C[C@@H](OC(C)=O)C(C)(C)[C@@H]2C[C@@H](OC(C)=O)[C@]3(C)[C@H](CC[C@@]4(C)[C@H](c5ccoc5)OC(=O)[C@H]5O[C@@]534)[C@@]12C [KHIVORIN]
residual activity [1]: 94.96%
residual activity [2]: 77.22%

O=C(O)/C=C/C=C/c1ccccc1 [JUAREZIC ACID]
residual activity [1]: 88.74%
residual activity [2]: 102.3%

CC(C)CCCCCOC(=O)COc1cc(Cl)c(Cl)cc1Cl
residual activity [1]: 93.76%
residual activity [2]: 105.5%

OC(Cn1cncn1)(Cn1cncn1)c1ccc(F)cc1F [FLUCONAZOLE]
residual activity [1]: 106.5%
residual activity [2]: 86.64%

O=c1cc(-c2ccc(O)cc2)oc2cc(O[C@@H]3O[C@H](CO)[C@@H](O)[C@H](O)[C@H]3O[C@@H]3OC[C@](O)(CO)[C@H]3O)cc(O)c12 [APIIN]
residual activity [1]: 141.5%
residual activity [2]: 69.17%

O=C1NC(=O)C(=O)C(=O)N1 [ALLOXAN]
residual activity [1]: 108.5%
residual activity [2]: 118.2%
